Data on two compounds can be found in US12410231B2, “Natural killer cell products and methods” (Board of Regents of The University of Texas System, priority 2018, dated 2025).

For data set [1] the following is noted: healthy volunteers; cited from earlier work.
The test system of data set [2] is DNAM1, NKP30, NKP44, NKP46, NKG2D, CD16, Fas, FasL. The experiment in a line: Immunophenotype of transduced NK cells (NK receptors, multiparameter flow cytometry). Type of data set: cell-based, human. The following applies: rimiducid administration; data not shown. An excerpt: FIGS. 18A-18E Phenotype of iMC transduced NK cells. […] MFI or the percentages of positive cells were normalized according the average value of non-transduced NK cells. […] Two-way ANOVAs were used to compare groups. P<0.0001. […] Transgene expression as indicated by CD19 positive percentage. Representative flow plots are shown in FIG. 18D and dot plots for N=4 in FIG. 18E. Paired t tests were used to compare groups. **p<0.01.
Transduced NKs or T cells were stained with anti-CD56-APCcy7 (NK) or anti-CD3-Percep.Cy5 (T) and anti-CD19-BV421 for iMC or iRC9 transgene expression. For CAR-transduced cells, anti-CD34 QBEnd-10-PE (Abnova) was used to determine transduction efficiency. […] All antibodies were purchased from Biolegend except otherwise stated. Flow cytometry was performed using NovoCyte flow cytometer and the data were analyzed using ACEA NovoExpress software (ACEA Biosciences Inc, San Diego, CA).
NK cell activating receptors are essential for NK cell activation and recognition of targets. Upon infection or malignant transformation, these ligands typically upregulate and activate NK cells for specific attack and elimination of target cells. […]

In data set [3] the test system is IFN-γ. The data set is described as follows: IFN-γ ELISA of supernatant, co-culture with k562. Format: cell-based, human. The following applies: rimiducid 0-100 nM.
Data set [4] deals with transduced NK cells. The experiment in a line: Safety switch activation in NK cells in vitro (Annexin V, 7AAD, CD19 loss). Type of data set: cell-based, human. As to conditions: 10 nM temsirolimus. Here is the method: (§1) FIGS. 25A-25D: Safety switch in NKs. […] FIG. 25A: Annexin V staining was assessed by flow cytometry analysis. FIG. 25B: Temsirolimus at various concentration was administrated for 24 hrs. 7AAD staining was assessed by flow cytometry. Cells were first gated as CD56+CD19+ for transduced cells, CD56+ for NT non-transduced NK cells. […] 4 Four mice were applied administered 1 mg/kg temsirolimus i.p., whereas 5 mice were administrated with same volume vehicle. Before injection and 24 hrs. later, firefly luciferase BLI was determined for to measure NK presence in vivo (FIG. 25E). Mice were then euthanized. Spleens were analyzed for the presence of NK cells by flow cytometry. NK cells were identified as hCD45+mCD45− populations (FIG. 25F). Transduced NKcells were identified as hCD45+mCD45-hCD56+hCD19+ populations (FIG. 25G). Student t test was used to do comparisonscompare groups. ***P<0.001.
FIG. 14—Caspase-9 activation ablates DS NK cells. NK cells from three separate donors were transduced with recombinant retroviruses 1664 (iMC+iRC9) or 1531 (iC9+iRMC) and expanded. […] After 24 hours NK cells were assayed for presence of the CD19 marker cotransduced with the switches. […] MFI=Mean fluorescence intensity of CD19 in flow cytometry, indicating a proportional growth advantage of highly expressing cells. […]

In data set [5] the test system is iRC9.IL15.iMC-transduced NKs. The data set is described as follows: Safety switch activation in vivo in NSG mice (BLI, spleen flow cytometry). Also on record: species or system mouse. The method, then: as §1
To prevent potential uncontrolled expansion of the gene modified NK cells, as well as associated cytokine release syndrome (CRS) and GvHD, a suicide gene iRC9 was incorporated into the constructs. […] The suicide gene was also effective in vivo. Mice engrafted with THP-1 tumor received iRC9.IL15.iMC-transduced NKs labeled with oNL […] luciferase. Mice were then either treated with the dimerizer temsirolimus or vehicle control.

For `CC[C@H](C(=O)N1CCCC[C@H]1C(=O)O[C@H](CCc1ccc(OC)c(OC)c1)c1cccc(OCC(=O)NCCNC(=O)COc2cccc([C@@H](CCc3ccc(OC)c(OC)c3)OC(=O)[C@@H]3CCCCN3C(=O)[C@@H](CC)c3cc(OC)c(OC)c(OC)c3)c2)c1)c1cc(OC)c(OC)c(OC)c1` (relative stereo) [Rimiducid, 2-Piperidinecarboxylic acid, 1-[(2S)-1-oxo-2-(3,4,5-trimethoxyphenyl)butyl]-, 1,2-ethanediyIbis[imino(2-oxo-2,1-ethanediyl)oxy-3,1-phenylene[(1R)-3-(3,4-dimethoxyphenyl)propylidene]] ester, [2S-[1(R*),2R*[S*[S*[1(R*),2R*]]]]]-(9Cl)], the safety result in data set [1] is listed as “proven safe in healthy volunteers”. Further, the “surface NK cell receptor expression” value in data set [2] is “did not increase surface NK cell receptor expression”. In data set [3], the “IFN-γ production at the co-culture supernatant” value was “dramatically increased IFN-γ production at the co-culture supernatant in a dose-dependent manner”.

In the case of `CO[C@H]1C[C@@H]2CC[C@@H](C)[C@@](O)(O2)C(=O)C(=O)N2CCCC[C@H]2C(=O)O[C@H]([C@H](C)C[C@@H]2CC[C@@H](OC(=O)C(C)(CO)CO)[C@H](OC)C2)CC(=O)[C@H](C)/C=C(\C)[C@@H](O)[C@@H](OC)C(=O)[C@H](C)C[C@H](C)/C=C/C=C/C=C/1C` [temsirolimus], in data set [4], the “apoptosis of transduced NK cells” value is given as “induced apoptosis as early as 4 hrs” and the “viability of non-transduced NK cells” value was “no effect”. Besides, the “frequency of gene modified NK cells in the spleens” value in data set [5] (temsirolimus treated mice) is on record as “significantly reduced”. Also, the “BLI signal of NK cells in vivo” value in data set [5] (within 24 hrs, temsirolimus 1 mg/kg i.p. vs vehicle) is “dramatically reduced”.
